Assay results reported in patent US9029393B2, “Adenosine receptor ligands and uses thereof” (Kaldi Pharma, SAS, priority 2009, dated 2015).
Counter-ions that a name gives are not always drawn.

What was measured:
hA2A receptor = hA2A receptor (Homo sapiens (Human), UniProt P29274); experiment: A2A FRET-based binding assay; conditions: HEK GFP-A2A stable cell line, dyed CGS15943-derived probe
Protocol: Assay protocol: Compounds were evaluated on an in-vitro binding assay developed based on the technology described in the patent WO 98/55873. This assay was developed from hA2A receptor that was fused at its amino terminal domain to Green Fluorescent Protein (GFP) and stably expressed in HEK cells. The probe used is a dyed ligand derived from the non-selective CGS15943. For the FRET-binding experiment, HEK GFP-A2A stable cell line was seeded onto poly-D-lysine precoated black-walled 96-well plates in normal growth media (0.7 10^5 cells per well). After 24 hours of culture at 37° C., the cell media was removed and cells were washed. The tested compounds were applied on cells by the FLIPR^TETRA® (Molecular Devices®) and incubated for 10 minutes prior to addition of the dyed probe. When a drug interacts with the receptor, the FRET signal measured by the variation of GFP fluorescence at 510 nm is disrupted. The time curves of ligand binding were recorded during 1000 seconds. (excitation Light Emitting Diode 470-495 nm, emission 510+/−10 nm). The percentage of inhibition allows the evaluation of the inhibitory activity of compounds in comparison to the antagonist A2A reference CGS15943. The dose-inhibition curves were fitted with variable slope, using GraphPad® Prism software, in order to determine […] and Ki values. The dose-inhibition experiments were all performed in duplicate, three times independently.

human A2A receptor = human A2A receptor (Homo sapiens, UniProt P29274); experiment: A2A-antagonist Ca++ functional assay (CGS21680 at EC80); assay type: cell-based; conditions: HEK cells expressing GFP-hA2A and Gα15, inhibition of CGS21680 (EC80)-induced Ca2+ increase
Excerpt: Assay protocol: HEK cells stably expressing the human A2A receptor fused at its amino terminal domain to GFP, and cultured in Modified Eagle's Medium supplemented with 10% FCS, were transiently transfected by electroporation with plasmid DNA encoding the promiscuous G protein Gα15 in order to deviate the natural coupling of the receptor from AMPc production to calcium (Ca^2+) release pathway (Brabet et al., Neuropharmacology 37:1043-1051, 1998). Receptor activity was detected by changes in intracellular Ca^2+, measured using the fluorescent Ca^2+ sensitive dye, Fluo4AM (Molecular Probes®).
Cells were plated after transfection onto polyornithine coated, clear bottom, black-walled, 96-well plates and cultured for 24 hours. The day of the test, cells were washed with freshly prepared buffer B (HBSS 1×, Hepes 20 mM, MgSO4.7H2O 1 mM, Na2CO3 3.3 mM, CaCl2-2H2O 1.3 mM, 0.5% BSA, Probenecid 2.5 mM) and loaded at 37° C. in 5% CO2 for 1.5 hours with buffer B containing 1 μM Fluo4AM and 0.1 mg/mL Pluronic Acid. Afterwards cells were washed twice with buffer B and 50 μL of this buffer were added to each well. The tested compounds were incubated […] before addition of CGS21680 (used as reference agonist) at a concentration leading to 80% of its maximal activity (EC80). Afterwards, the intracellular Ca^2+ measurements were performed on a 60s kinetic by detection of the fluorescence intensity (excitation 485 nm, emission 525 nm) using the fluorescence microplate reader FlexStation® (Molecular Devices®). All data reflect three independent experiments. Dose-response curves were fitted by using the sigmoidal dose-response (variable slope) analyze in GraphPad Prism® program (San Diego) and IC50 of antagonist compound was calculated. Dose-response experiments were all performed in triplicate, three times independently.

[1] = test system: haloperidol-induced catalepsy; experiment: Haloperidol-induced catalepsy model in the mouse (bar test); assay type: in vivo

Chain of hA2A receptor (P29274 whole entry, the tested form may be a part): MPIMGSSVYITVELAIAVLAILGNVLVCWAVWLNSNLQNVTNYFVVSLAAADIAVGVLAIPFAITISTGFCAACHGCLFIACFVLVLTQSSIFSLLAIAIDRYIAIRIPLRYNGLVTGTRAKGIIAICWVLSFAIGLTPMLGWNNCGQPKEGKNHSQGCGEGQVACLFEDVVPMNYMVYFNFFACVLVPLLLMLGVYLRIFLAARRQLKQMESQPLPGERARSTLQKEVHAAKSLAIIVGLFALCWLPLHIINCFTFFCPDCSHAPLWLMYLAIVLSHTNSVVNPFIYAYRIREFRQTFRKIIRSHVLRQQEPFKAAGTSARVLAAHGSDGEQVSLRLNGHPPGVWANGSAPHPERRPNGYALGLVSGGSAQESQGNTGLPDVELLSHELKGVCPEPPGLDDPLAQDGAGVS

Ki (hA2A receptor) | IC50 (human A2A receptor) | melting point | SMILES | anti-cataleptic effect ([1]; 1 mg/kg i.p. 120 minutes after haloperidol, FIG. 1) | anti-cataleptic effect ([1]; 30 mg/kg i.p. 120 minutes after haloperidol, FIG. 1) | anti-cataleptic effect ([1]; 1, 3, 30 and 100 mg/kg i.p. 120 minutes after haloperidol (1 mg/kg i.p.), FIG. 1) | anti-cataleptic effect ([1]; 10 and 30 mg/kg per os 120 minutes after haloperidol, FIG. 2)
4 ± 1 nM | 15 ± 4 nM |  | Cn1nc(-c2cnc3ccc(F)cn23)c2ccc(C(=O)N3CCCCCC3)cc21 [Example 79, Azepan-1-yl-[3-(6-fluoro-imidazo[1,2-a]pyridin-3-yl)-1-methyl-1H-indazol-6-yl]-methanone] |  |  |  | 
3 ± 0.4 nM | 21 ± 8 nM |  | Cn1nc(-c2cnc3ccc(F)cn23)c2ccc(C(=O)N3CCCCCCC3)cc21 [Example 97, Azocan-1-yl-[3-(6-fluoro-imidazo[1,2-a]pyridin-3-yl)-1-methyl-1H-indazol-6-yl]-methanone, chlorhydrate salt] |  |  |  | 
4 ± 1 nM | 46 ± 3 nM | 218 to 219 °C | O=C(c1ccc2c(-c3cnc4ccc(F)cn34)noc2c1)N1CCCCCC1 [Example 113, Azepan-1-yl-[3-(6-fluoro-imidazo[1,2-a]pyridin-3-yl)-benzo[d]isoxazol-6-yl]-methanone] |  |  |  | 
72 ± 10 nM | 326 ± 47 nM | 160 to 166 °C | O=C(c1ccc2c(c1)nnn2-c1cnc2ccc(F)cn12)N1CCCCCC1 [Example 132, 5-(Azepan-1-ylcarbonyl)-1-(6-fluoroimidazo[1,2-a]pyridin-3-yl)-1H-1,2,3-benzotriazole] |  |  |  | 

Further lines, the compound ahead of its results:

SMILES | Ki (hA2A receptor) | IC50 (human A2A receptor) | melting point | anti-cataleptic effect ([1]; 1 mg/kg i.p. 120 minutes after haloperidol, FIG. 1) | anti-cataleptic effect ([1]; 30 mg/kg i.p. 120 minutes after haloperidol, FIG. 1) | anti-cataleptic effect ([1]; 1, 3, 30 and 100 mg/kg i.p. 120 minutes after haloperidol (1 mg/kg i.p.), FIG. 1) | anti-cataleptic effect ([1]; 10 and 30 mg/kg per os 120 minutes after haloperidol, FIG. 2)
CCN(C(=O)c1ccc(C(=O)c2cnc3ccc(Br)cn23)cc1)C1CCCCC1 [Example 10, 4-(6-Bromo-imidazo[1,2-a]pyridine-3-carbonyl)-N-cyclohexyl-N-ethyl-benzamide] | 108 ± 74 nM | 891 ± 571 nM |  |  |  |  | 
O=C(c1ccc(C(=O)N2CCCCCC2)cc1)c1cnc2ccc(F)cn12 [Example 14, [4-(Azepane-1-carbonyl)-phenyl]-(6-fluoro-imidazo[1,2-a]pyridin-3-yl)-methanone] | 12 ± 6 nM | 195 ± 100 nM | 165 to 169 °C | no anticataleptic activity | the most important catalepsy reversion | significant anti-cataleptic effect in a dose-dependent manner | significant anti-cataleptic effect in a dose-dependent manner
CCN(C(=O)c1ccc(C(=O)c2cnc3ccccn23)nc1)C1CCCCC1 [Example 23, N-Cyclohexyl-N-ethyl-6-(imidazo[1,2-a]pyridine-3-carbonyl)-nicotinamide] | 264 ± 141 nM | 403 ± 163 nM |  |  |  |  | 
Nc1cc(C(=O)N2CCCCCC2)ccc1C(=O)c1cnc2ccc(F)cn12 [Example 30, [2-Amino-4-(azepane-1-carbonyl)-phenyl]-(6-fluoro-imidazo[1,2-a]pyridin-3-yl)-methanone] | 103 ± 52 nM | 992 ± 11 nM | 141 to 152 °C |  |  |  | 
O=C(c1ccc(C(=O)N(C2CCCCC2)C2CCCCC2)cc1)c1cnc2ccccn12 [Example 48, N,N-Dicyclohexyl-4-(imidazo[1,2-a]pyridine-3-carbonyl)-benzamide] | 138 ± 115 nM | 945 ± 419 nM |  |  |  |  | 
O=C(c1ccc(C(=O)N2CCCc3ccccc32)cc1)c1cnc2ccccn12 [Example 71, [4-(3,4-Dihydro-2H-quinoline-1-carbonyl)-phenyl]-imidazo[1,2-a]pyridin-3-yl-methanone] | 171 ± 70 nM | 1830 ± 122 nM | 169 to 175 °C |  |  |  | 
COC[C@H]1CCCN1C(=O)c1ccc2c(-c3cnc4ccc(C#N)cn34)nn(C)c2c1 [Example 101, 3-(1-Methyl-6-{[(2R)-2-(methoxymethyl)pyrrolidin-1-yl]carbonyl}-1H-indazol-3-yl)imidazo[1,2-a]pyridine-6-carbonitrile, chlorhydrate salt] | 3 nM | 12 ± 4 nM |  |  |  |  | 
